From US20260109721A1, “IONIZABLE CATIONIC LIPIDS INCORPORATING SILICON: SYNTHESIS AND LNP FORMULATION” (priority 2023, published 2026)

How the values were obtained:
[1] = LNP size, PDI and zeta potential by Dynamic Light Scattering (Method A); assay type: physicochemical; details: LNP formulated with the lipid, DLS
In short: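 LNPs formed by microfluidic mixing of ethanolic lipid mix with Luc mRNA in 10 mM citrate pH 4.0, about 12 ml/min total flow at 3:1 ratio. Particle size, PDI and zeta potential then measured by dynamic light scattering.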

HeLa cells = test: Transfection efficiency with Luciferase (SecNLuc) mRNA, Nano-Glo assay (Method A); assay type: cell-based; details: Luc mRNA, 24 h, luminescence; for Transfection 10 ng mRNA: 10 ng mRNA/well; for Transfection 50 ng mRNA: 50 ng mRNA/well; for Transfection 100 ng mRNA: 100 ng mRNA/well
In short: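 LNPs formulated by Method A carried SecNLuc mRNA at 100, 50 or 10 ng/well onto HeLa cells at 80% confluence, in triplicate. After 24 h, secreted NanoLuc in the medium was measured by Nano-Glo luminescence about 3 min after reagent addition.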

Structure (SMILES)	PDI [1]	Size (nm) [1] [nm]	Zeta potential (mV) [1] [mV]	Transfection 10 ng mRNA (HeLa cells)	Transfection 50 ng mRNA (HeLa cells)	Transfection 100 ng mRNA (HeLa cells)
CCCCCCCC/C=C\CCCCCCCCOC(=O)C(C)(C)CC(OCCCCCCCC/C=C\CCCCCCCC)O[Si](C)(C)OCCCCCCN(C)CCO (centres unmarked) [Example 93, (Z)-octadec-9-en-1-yl 1-hydroxy-3,11,11,15,15-pentamethyl-13-(((Z)-octadec-9-en-1-yl)oxy)-10,12-dioxa-3-aza-11-silahexadecan-16-oate]	0.15	82.7	−14.61	2.73E+03	2.75E+04	1.19E+05
CCCCCCCC/C=C\CCCCCCCCOC(=O)C(C)(C)CCC(OCCCCCCCC/C=C\CCCCCCCC)O[Si](C)(C)OCCCCCCN(CCO)CCO (centres unmarked) [Example 94, (Z)-octadec-9-en-1-yl 1-hydroxy-3-(2-hydroxyethyl)-11,11,16,16-tetramethyl-13-(((Z)-octadec-9-en-1-yl)oxy)-10,12-dioxa-3-aza-11-silaheptadecan-17-oate]	0.24	93.8	−12.89	7.50E+02	8.22E+03	3.14E+04
CCCCCCCC/C=C\CCCCCCCCOC(=O)C(C)(C)CCC(OCCCCCCCC/C=C\CCCCCCCC)O[Si](C)(C)OCCCCCCN1CCOCC1 (centres unmarked) [Example 95, (Z)-octadec-9-en-1-yl 5-((dimethyl((6-morpholinohexyl)oxy)silyl)oxy)-2,2-dimethyl-5-(((Z)-octadec-9-en-1-yl)oxy)pentanoate]	0.15	90.33	−20.80	1.22E+02	5.37E+02	9.82E+02
CCCCCCCC/C=C\CCCCCCCCOC(=O)C(C)(C)CC(OCCCCCCCC/C=C\CCCCCCCC)O[Si](C)(C)OCCCCCCN(CCO)CCN(CCO)CCCCCCO[Si](C)(C)OC(CC(C)(C)C(=O)OCCCCCCCC/C=C\CCCCCCCC)OCCCCCCCC/C=C\CCCCCCCC (centres unmarked) [Example 96, di((Z)-octadec-9-en-1-yl) 14,17-bis(2-hydroxyethyl)-2,2,6,6,25,25,29,29-octamethyl-4,27-bis(((Z)-octadec-9-en-1-yl)oxy)-5,7,24,26-tetraoxa-14,17-diaza-6,25-disilatriacontanedioate]	0.14	81.42	−17.77	3.94E+02	2.15E+03	2.94E+03
C#CCN(C)CCCCCCO[Si](C)(C)OC(CC(C)(C)C(=O)OCCCCCCCC/C=C\CCCCCCCC)OCCCCCCCC/C=C\CCCCCCCC (centres unmarked) [Example 97, (Z)-octadec-9-en-1-yl 4,12,12,16,16-pentamethyl-14-(((Z)-octadec-9-en-1-yl)oxy)-11,13-dioxa-4-aza-12-silaheptadec-1-yn-17-oate]	0.26	101.9	−22.01	3.01E+02	1.34E+03	1.28E+03
CCCCCCCCCCCOC(=O)CCCCCN(CCO)CCCCCCCC(=O)OC(CCCCCCCC)CCCCCCCC [SM-102, reference compound]		77.03	−5.03	2.15E+06	7.53E+06	7.61E+06
